pKi: −log10 of the molar value. Where two headings read alike, the source gives them in different places.
Legend:
PNMT = details: read-out: Ki^PEA; ref [85]; cited from earlier work
bovine PNMT [1] = molecular target: T1, bovine PNMT (Bos taurus, UniProt P10938); details: read-out: PNMT Kis^PEA; bovine enzyme; ref [16]; cited from earlier work
T1 sequence (P10938 1-283): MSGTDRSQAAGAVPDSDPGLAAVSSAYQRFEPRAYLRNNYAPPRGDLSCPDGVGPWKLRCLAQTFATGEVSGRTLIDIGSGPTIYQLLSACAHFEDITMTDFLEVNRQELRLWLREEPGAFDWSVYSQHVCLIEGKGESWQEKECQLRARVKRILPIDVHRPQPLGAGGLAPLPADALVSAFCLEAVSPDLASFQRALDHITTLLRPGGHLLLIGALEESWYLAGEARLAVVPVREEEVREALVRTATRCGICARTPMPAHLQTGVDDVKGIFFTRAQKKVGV

bovine PNMT [2] = molecular target: T1, bovine PNMT; test: PNMT inhibition, bovine enzyme; format: biochemical
human PNMT (hPNMT) = molecular target: T2, human PNMT (hPNMT) (Homo sapiens, UniProt P11086); test: radiochemical assay for hPNMT inhibitory potency
T2 sequence (P11086 1-282): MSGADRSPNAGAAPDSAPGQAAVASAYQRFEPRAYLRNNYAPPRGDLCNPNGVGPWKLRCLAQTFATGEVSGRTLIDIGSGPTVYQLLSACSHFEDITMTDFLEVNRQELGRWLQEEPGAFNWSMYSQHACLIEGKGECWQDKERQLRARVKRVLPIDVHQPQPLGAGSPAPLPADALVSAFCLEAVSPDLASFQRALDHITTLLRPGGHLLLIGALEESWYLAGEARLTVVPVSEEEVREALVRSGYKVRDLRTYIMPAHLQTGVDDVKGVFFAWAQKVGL

In the case of `c1ccc2c(c1)CCNC2` [Compound 10, 1,2,3,4-tetrahydroisoquinoline], the pKi (PNMT) is listed as 5.00.

For `NC(=O)C1Cc2ccccc2CN1` (centres unmarked) [Compound 13], the pKi (bovine PNMT [1]) is listed as 4.51.

In the case of `NCC1Cc2ccccc2CN1` (centres unmarked) [Compound 14], the pKi (bovine PNMT [2]) was 5.85 and the “greater potency as an inhibitor of hPNMT than 13” value (human PNMT (hPNMT); 14 (aminomethyl) versus 13 (aminocarbonyl)) was “over 20 fold”.

In the case of tris(hydroxymethyl)amino methane, the “inhibition in PNMT assays” value (human PNMT (hPNMT); buffer component, prompted a switch to phosphate buffer) was “inhibition being observed”.
